Results from patent US12186311B2, “Antiproliferative compounds and second active agents for combined use” (Celgene Corporation, priority 2019, dated 2025).

Experiments:
Assay type in all cases: cell-based
[1] = test system: AMO1 (parental) cell line; test: Cell proliferation, combination with Compound 2, combination index (Calcusyn), AMO1; details: AMO1, 3 days
Experimental: (§1) AMO1 (parental) and AMO1-PR (pomalidomide resistant) cell lines were treated with various doses of Compound 2 in combination with increasing doses of an MEK inhibitor trametinib for 3 days. Cell proliferation was analyzed using thymidine incorporation assays. Combination index values were calculated by Calcusyn and values below 10^0 represented the synergy between the combination treatments. The results are shown in FIG. 4A (AMO1), FIG. 4B (AMO1 combination index), FIG. 4C (AMO1-PR), and FIG. 4D (AMO1-PR combination index), respectively.
(§2) AMO1 and AMO1-PR (pomalidomide resistant) cell lines were treated with increasing doses of Compound 2 in combination with a PLK1 inhibitor (BI2536). Changes in cell proliferation were studied in response to monotherapy and combinations at Day 3 post treatment. Combination Index was calculated using Calcusyn based method. Combination index values were calculated by Calcusyn and values below 10^0 represented the synergy between the combination treatments. PLK1 is one of the key target gene of MDMS8 (molecularly defined myeloma segment 8), a high risk cluster identified from myeloma genome project. The results are shown in FIG. 6A (AMO1), FIG. 6B (AMO1 combination index), FIG. 6C (AMO1-PR), and FIG. 6D (AMO1-PR combination index), respectively. Inhibition of MDMS8 target gene PLK1 with Compound 2 is synergistic in AMO1 and AMO1-PR cells.
(§3) AMO1 and AMO1-PR (pomalidomide resistant) cell lines were treated with increasing doses of Compound 2 in combination with an NEK2 inhibitor (JH295). Changes in cell proliferation were studied in response to monotherapy and combinations at Day 3 post treatment. Combination index values were calculated by Calcusyn and values below 10^0 represented the synergy between the combination treatments. NEK2 is one of the key target gene of MDMS8 (molecularly defined myeloma segment 8), a high risk cluster identified from myeloma genome project. The results are shown in FIG. 7A (AMO1 combination index) and FIG. 7B (AMO1-PR combination index), respectively. Inhibition of MDMS8 target gene NEK2 with Compound 2 is synergistic in AMO1 and AMO1-PR cells.
(§4) AMO1, AMO1-PR (pomalidomide resistant), K12PE and K12PE-PR (pomalidomide resistant) cell lines were treated with increasing doses of Compound 2 in combination with an AURKB inhibitor (AZD 1152). […] Combination index values were calculated by Calcusyn and values below […] represented the synergy between the combination treatments. […]
(§5) AMO1, AMO1-PR (pomalidomide resistant) cell lines were treated with increasing doses of Compound 2 in combination with a BIRC5 inhibitor (YM155). […] Combination index values were calculated by Calcusyn and values below 10^0 represented the synergy between the combination treatments. […]

[2] = test system: AMO1-PR (pomalidomide resistant) cell line; test: Cell proliferation, combination with Compound 2, combination index (Calcusyn), AMO1-PR; details: 3 days
Experimental: as §1, §2, §3, §4, §5

[3] = test system: panel of MM cell lines (H929-1051, KMS11, KMS-12PE, L363, OPM-P10, RPMI8226); test: Compound 2 combination with small molecule inhibitors, 3 day Cell Titer-Glo, Highest Single Agent synergy; details: six MM cell lines, 3 days, Highest Single Agent method
Experimental: The combination experiments were run twice, each time with replicate data on separate plates. Compounds were pre-spotted into the appropriate wells of 384-well plates using an acoustic dispenser. All MM cell lines were cultured in an incubator at 37° C. with 5% CO2 using the indicated cell culture media containing 1× Penicillin-Streptomycin. Cells were added to the compound containing 384-well plates using a Multidrop Combi Reagent Dispenser and allowed to incubate for 3 days at 37° C. with 5% CO2. After 3 days, cells were assessed for their level of ATP content via Cell Titer-Glo measured on a luminescence detector (PerkinElmer Envision).
The Highest Single Agent (HAS) method was used to detect synergy in the dose response curve data. Combinations were analyzed from a response surface perspective.

[4] = test system: MM cell lines OPM.2-P10, H929-1051, KMS12BM PR, L363, JJN3; test: 7 day combination assay (Annexin V/7-AAD flow cytometry, fractional product method), MM cell line panel; details: panel of 5 MM cell lines, 7 day assay, 3 days priming with second agent
Experimental: Five MM cell lines with acquired or inherent resistance to lenalidomide or pomalidomide were included in the studies (OPM.2-P10, H929-1051, KM[…] PR, L363, and JJN3). […] The assay was performed in a 96-well plate. All MM cell lines were cultured in an incubator at 37° C. with 5% CO2 using the indicated cell culture media containing 1×Penicillin-Streptomycin. The MM cells were primed for 3 days with these second agents at the single agent IC50 value. […] Compound 2 was added to the cells at a dose range of 30 μM-0.00018 μM, depending on the cell line, for a 8 point dose response curve. The cells were incubated at 37° C. for an additional 4 days. At the end of the 7 day treatment, the MM cells were stained with Annexin V and 7-AAD and analyzed on a flow cytometer. Live MM cells were identified as Annexin V and 7-AAD double negative cells. In these experiments, synergy calculations were performed using the fractional product method (Webb, 1963).

Row | Structure (SMILES) | synergy in combination with Compound 2 [3] | synergy in combination with Compound 2 [4] | also measured
1 | CC[C@@H]1C(=O)N(C)c2cnc(Nc3ccc(C(=O)NC4CCN(C)CC4)cc3OC)nc2N1C1CCCC1 [BI2536, (R)-4-((8-cyclopentyl-7-ethyl-5-methyl-6-oxo-5,6,7,8-tetrahydropteridin-2-yl)amino)-3-methoxy-N-(1-methylpiperidin-4-yl)benzamide] |  |  | synergy with Compound 2 (combination index) [1]: synergistic; synergy with Compound 2 (combination index) [2]: synergistic
2 | C[C@]1(O)C[C@@H](c2nc(-c3ccc4ccc(-c5ccccc5)nc4c3)c3c(N)nccn32)C1 [linsitinib, cis-3-[8-amino-1-(2-phenyl-7-quinolinyl)imidazo[1,5-a]pyrazin-3-yl]-1-methylcyclobutanol] | synergy in combination with Compound 2 in four out of the six cell lines tested |  | 
3 | O=C(/C=C\n1cnc(-c2cc(C(F)(F)F)cc(C(F)(F)F)c2)n1)NNc1cnccn1 [selinexor, (2Z)-3-{3-[3,5-bis(trifluoromethyl)phenyl]-1H-1,2,4-triazol-1-yl}-N′-(pyrazin-2-yl)prop-2-enehydrazide] | synergy in one, two, or three out of the six cell lines tested |  | 
4 | CC(C)N(CCCNC(=O)Nc1ccc(C(C)(C)C)cc1)C[C@H]1O[C@@H](n2cc(Br)c3c(N)ncnc32)[C@H](O)[C@@H]1O [SGC0946, 5 bromo-7-[5-deoxy-5-[[3-[[[[4-(1,1-dimethylethyl)phenyl]amino]carbonyl]amino]propyl](1-methylethyl)amino]-β-D-ribofuranosyl]-7H-pyrrolo[2,3-d]pyrimidin-4-amine] | synergy in one, two, or three out of the six cell lines tested |  | 
5 | C#CC(=O)Nc1ccc2c(c1)/C(=C/c1[nH]c(CC)nc1C)C(=O)N2 [JH295, (Z)—N-(3-((2-ethyl-4-methyl-1H-imidazol-5-yl)methylene)-2-oxoindolin-5-yl)propiolamide] |  |  | synergy with Compound 2 (combination index) [1]: synergistic; synergy with Compound 2 (combination index) [2]: synergistic
6 | CO[C@H]1C[C@@H]2CC[C@@H](C)[C@@](O)(O2)C(=O)C(=O)N2CCCC[C@H]2C(=O)O[C@H]([C@H](C)C[C@@H]2CC[C@@H](OCCO)[C@H](OC)C2)CC(=O)[C@H](C)/C=C(\C)[C@@H](O)[C@@H](OC)C(=O)[C@H](C)C[C@H](C)/C=C/C=C/C=C/1C [everolimus, 40-O-(2-hydroxyethyl)-rapamycin] | synergy in combination with Compound 2 in five out of the six cell lines tested |  | 
7 | Nc1ncn([C@@H]2O[C@H](CO)[C@@H](O)[C@H]2O)c(=O)n1 [azacitidine, 4-amino-1-β-D-ribofuranosyl-1,3,5-triazin-2(1H)-one] |  | synergy in 4 of the cell lines tested | 
8 | C=CC(=O)N1CCC[C@@H](n2nc(-c3ccc(Oc4ccccc4)cc3)c3c(N)ncnc32)C1 [ibrutinib, 1-[(3R)-3-[4-amino-3-(4-phenoxyphenyl)-1Hpyrazolo[3,4-d]pyrimidin-1-yl]-1-piperidinyl]-2-propen-1-one] | synergy in one, two, or three out of the six cell lines tested |  | 
9 | CC(C)N(C[C@H]1O[C@@H](n2cnc3c(N)ncnc32)[C@H](O)[C@@H]1O)C1CC(CCc2nc3cc(C(C)(C)C)ccc3[nH]2)C1 (stereo partly drawn) [pinometostat, (2R,3R,4S,5R)-2-(6-amino-9H-purin-9-yl)-5-((((1r,3S)-3-(2-(5-(tert-butyl)-1H-benzo[d]imidazol-2-yl)ethyl)cyclobutyl)(isopropyl)amino)methyl)tetrahydrofuran-3,4-diol] |  | Synergy was also evident | 
10 | CCN(c1cc(-c2ccc(CN3CCOCC3)cc2)cc(C(=O)NCc2c(C)cc(C)[nH]c2=O)c1C)C1CCOCC1 [tazemetostat, N-[(1,2-dihydro-4,6-dimethyl-2-oxo-3-pyridinyl)methyl]-5-[ethyl(tetrahydro-2H-pyran-4-yl)amino]-4-methyl-4′-(4-morpholinylmethyl)-[1,1′-biphenyl]-3-carboxamide] | synergy in one, two, or three out of the six cell lines tested | synergistic in all 5 cell lines tested | 
11 | Cc1cnc(Nc2ccc(OCCN3CCCC3)cc2)nc1Nc1cccc(S(=O)(=O)NC(C)(C)C)c1 [fedratinib, N-tert-butyl-3-[(5-methyl-2-{4-[2-(pyrrolidin-1-yl)ethoxy]anilino}pyrimidin-4-yl)amino]benzenesulfonamide] | synergy in one, two, or three out of the six cell lines tested |  | 
12 | COCCn1c2c([n+](Cc3cnccn3)c1C)C(=O)c1ccccc1C2=O.[Br-] [YM155, 1-(2-methoxyethyl)-2-methyl-4,9-dioxo-3-(pyrazin-2-ylmethyl)-4,9-dihydro-1H-naphtho[2,3-d]imidazol-3-ium bromide] |  |  | synergy with Compound 2 (combination index) [1]: synergistic; synergy with Compound 2 (combination index) [2]: synergistic
13 | COc1cc(C)[nH]c(=O)c1CNC(=O)c1c(C)n([C@H](C)C2CCN(CC(F)(F)F)CC2)c2ccccc12 [CPI-1205, (R)—N-((4-methoxy-6-methyl-2-oxo-1,2-dihydropyridin-3-yl)methyl)-2-methyl-1-(1-(1-(2,2,2-trifluoroethyl)piperidin-4-yl)ethyl)-1H-indole-3-carboxamide] |  | synergistic in all 5 cell lines tested | 
